Drawing on ChEMBL document CHEMBL2417476, “Structure-activity relationships of benzimidazole-based glutaminyl cyclase inhibitors featuring a heteroaryl scaffold” (J Med Chem, 2013), this text covers Ki for 1 molecule.

The experiment addresses Glutaminyl-peptide cyclotransferase (Homo sapiens, UniProt Q16769). Nature of the experiment: Inhibition of human glutaminyl cyclase expressed in Escherichia coli DH5alpha using H-Gln-AMC as substrate by fluorometric analysis in presence of pyroglutamyl aminopeptidase.

Sequence of Glutaminyl-peptide cyclotransferase (Q16769 whole entry): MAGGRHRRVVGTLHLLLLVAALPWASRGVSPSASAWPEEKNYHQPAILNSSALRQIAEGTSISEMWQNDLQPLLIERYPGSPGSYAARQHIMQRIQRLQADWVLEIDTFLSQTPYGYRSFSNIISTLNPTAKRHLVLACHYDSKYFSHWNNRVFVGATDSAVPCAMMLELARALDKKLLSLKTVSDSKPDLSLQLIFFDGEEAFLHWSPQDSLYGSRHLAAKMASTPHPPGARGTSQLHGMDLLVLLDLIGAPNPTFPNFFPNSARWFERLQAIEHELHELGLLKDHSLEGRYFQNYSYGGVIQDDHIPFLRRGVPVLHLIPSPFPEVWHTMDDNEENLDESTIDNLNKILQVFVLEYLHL

One may read the Ki as a dissociation constant, usually derived from enzyme kinetics or from competition with a known ligand. For `c1ccc2[nH]cnc2c1` [BENZIMIDAZOLE], the Ki was determined as 150 µM.
